# “Also recorded” adds a separate entry of the source. Like-named read-outs stand apart in the source and are kept apart here.
# Tests used:
# TA100 = conditions: positive control
# Experimental: (§1) oxidative metabolism system (S9-mix). The maximum concentration tested and […]
# (§2) Compound 7a was tested in a bacterial mutation screening assay (Ames test) with Salmonella typhimurium TA1535, TA1537, TA98, TA100 and Escherichia coli WP2uvrA(pKM101) in the presence and absence of an exogenous mammalian […]
# (§3) The bacterial mutation screening assay was a plate incorporation test carried out as previously described15 and according to current methodology. […]
# TA1535 = conditions: positive control
# Experimental: as §1, §2, §3
# TA1537 = assay: Ames test, strain TA1537
# Experimental: as §1, §2, §3
# WP2 uvrA (pKM101) = assay: Ames test, strain WP2 uvrA (pKM101); conditions: with S9-mix, dose level 10 per plate, positive control
# Experimental: as §1, §2, §3
# TA98 = assay: Ames test, strain TA98; conditions: without S9-mix, dose level 1 per plate, positive control
# Experimental: as §1, §2, §3
# [1] = test system: L. donovani intramacrophage amastigotes; assay: L. donovani intramacrophage assay (amastigotes in differentiated THP-1 cells); assay type: cell-based, Leishmania donovani; conditions: for EC50: Leishmania donovani, L. donovani amastigotes in differentiated THP-1 cells, read-out: Intramacrophage EC50
# Experimental: T. cruzi4, Leishmania donovani axenic amastigote, cidal axenic amastigote and intra-
# macrophage drug sensitivity assays were conducted as previously described5,6. […]
# 5. Intrinsic clearance (CLint) […]
# 6. Pharmacokinetic studies. […]
# THP-1 cells = assay: Mammalian cell growth inhibition (THP-1); assay type: cell-based; conditions: Homo sapiens
# Excerpt: We hypothesized that, in view of their structural similarity, 1 and 2 probably shared the same mechanism of action.
# [2] = Intrinsic clearance in mouse liver microsomes; assay type: in vitro ADME
# Experimental: page 13: 4. Parasite assays T. cruzi4, Leishmania donovani axenic amastigote, cidal axenic amastigote and intra- macrophage drug sensitivity assays were conducted as previously described5,6. a. […] Instead of a single readout at 72 h, multiple identical plates were used and read at different time points (24, 48, 72 h). Rate of kill curves showing the luminescence signal at each time point for each concentration were plotted. 5. […] The rate of intrinsic clearance (CLint) of each test compound was then calculated using the following calculation: CLint(mL/min/g liver) = k x V x Microsomal protein yield Where V (mL/mg protein) is the incubation volume/mg protein added and microsomal protein yield is taken as 52.5 mg protein/g liver. Verapamil (0.5 μM) was used as a positive control to confirm acceptable assay performance. 6. Pharmacokinetic studies. a. Mouse and dog PK Mouse pharmacokinetic studies were conducted in male CD-1 mice and male beagle dogs. 3 animals per group were used for each study performed. A dose of 3 mg/kg was administered intravenously, in a bolus form to mice and infused over a 30 min period to dogs. For all the intravenous studies compound were dissolved in 5% DMSO/20% kleptose in saline. A dose of 10 mg/kg was orally administered by gavage to the two species in a suspension of 1% methylcellulose to investigate oral pharmacokinetics. S13
# [3] = CAD (charged aerosol detector) solubility
# [4] = test system: Salmonella typhimurium TA1535, TA1537, TA98, TA100 and Escherichia coli WP2uvrA(pKM101); assay: Bacterial mutation screening assay (Ames test), overall outcome; assay type: cell-based; conditions: presence and absence of S9-mix
# Experimental: i. Bacterial Mutation (Ames) Assay
# Compound 6 was tested in a bacterial mutation screening assay (Ames test) with Salmonella typhimurium TA1535, TA1537, TA98, TA100 and Escherichia coli WP2uvrA(pKM101) in the presence and absence of an exogenous mammalian oxidative metabolism system (S9-mix). The maximum concentration tested and […]
# Compound 6a was tested in a bacterial mutation screening assay (Ames test) with […]
# Compound 7a was tested in a bacterial mutation screening assay (Ames test) with […]
# as §3
# [5] = Solubility in fasted simulated intestinal fluid (FaSSIF); conditions: for FaSSIF solubility: fasted simulated intestinal fluid; for solubility: fasted simulated intestinal fluid (FaSSIF), fassif
# mouse lymphoma cells = assay: Mouse lymphoma assay; conditions: for MF (Mutation Frequency) / RTG (Relative Total Growth): positive control
# Experimental: oxidative metabolism system (S9-mix). […]
# The maximum […]
# concentrations analysed were 410.45 µg/mL (1 mM, the maximum concentration in accordance with current guidelines and 100 µg/mL (limited by toxicity), for the 3 and […]
# The mouse lymphoma screen was carried out using test methodology based on established procedures for in vitro gene mutation testing17,18,19,20. […]
# [6] = test system: L. donovani promastigotes; assay: microbe, parasite or virus in culture; assay type: cell-based, Leishmania donovani; conditions: read-out: EC50
# Experimental: 9. Mode of action studies a. Cell lines and culture conditions […]
# c. Generation of drug-resistant parasites […]
# donovani in the continuous presence of this compound. Starting at a sub-lethal […]
# After a total of 120 days in
# Genomic DNA was harvested from three independently generated L. donovani resistant clones and an age match control, as previously described27. PCR was performed using Platinum PCR Supermix (Invitrogen), as per manufacturer’s […]
# generated using primers SubunitB4FW and SubunitB4RV, then sequenced using primer SubunitB4FW (Table S6). To sequence the β5 subunit (LdBPK_361730.1), an […]
# sequenced using primer SubunitB5FW. PCR amplification and DNA sequencing were performed in triplicate for each independently generated cell line. The Leishmania donovani BPK282A1 sequences of the two subunits were identified in TriTrypDB and […]
# e. Generation of overexpression constructs and LdBOB transgenic cell lines The genes encoding the mutated versions of the β4 (LdBPK_360340.1) and the β5 […]
# parasites, were synthesised (GeneArt, Thermo Fischer Scientific). The synthetic genes, flanked by BamHI sites were cloned into the equivalent site of pIR1-SAT. The accuracy of all assembled constructs was verified by sequencing.
# Mid-log-phase L. donovani promastigotes (LdBOB) were transfected with overexpression constructs using the Human T-Cell Nucleofector kit and the Amaxa Nucleofector electroporator (program V-033). Following transfection, cells were […]
# to appropriate drug selection (100 µg/mL nourseothricin). Cloned cell lines were […]
# selection for one passage prior to experiments. […]
# [7] = test system: chymotrypsin-like activity of the L. donovani proteasome; assay: biochemical; set-up: species or system Leishmania donovani; conditions: lysates from RES II and WT parasites
# Experimental: An in vitro assay was developed that enabled the chymotrypsin-like activity and additional proteolytic activities associated with the proteasome to be directly monitored within proteasome-enriched parasite cell lysates. Likewise, human proteasome from two sources (i.e., commercially pure 26S and enriched proteasome fractions from THP-1 lysates) was tested using the same biochemical assays.
# Proteasome enrichment by ultracentrifugation
# The protocol described by Kisselev et al.34 was adapted to enrich the proteasomes present in L. donovani and THP1 crude extracts. L. donovani or THP1 cells were resuspended in sucrose buffer (50 mM Tris buffer pH 7.5, 5 mM Magnesium chloride, 1 mM EDTA, 50 mM NaCl, 250 mM sucrose, 2 mM ATP, 1 mM DTT) and lysed by nitrogen cavitation for 15 min (110 bars of 1500 psi). Lysates were centrifuged at 20,000g for 30 min at 4 °C and supernatants containing soluble protein were subjected to an ultracentrifugation step at 300,000g for 2h at 4 °C. The resulting proteasome-containing pellets were resuspended in sucrose buffer and left on ice for 30 min to complete solubilization. Samples were centrifuged for 10 min at 20,000 g to remove insoluble material. Proteins contained in supernatant (proteasome enriched fraction) were measured by Bradford.
# Proteasome activity assays
# Compounds were dispensed into black 384-well assay plates (Greiner) by acoustic dispensing (LabCyte ECHO). For potency determinations, eleven-point, one in three dilution curves were generated, with a top concentration of 100 µM. Three proteasome activities were measured using a commercially available indirect enzyme-based luminescent assay kit (Promega) with Suc-LLVY-aminoluciferin, Z-LRR-aminoluciferin and Z-nLPnLD-aminoluciferin used as substrates for chymotrypsin-like, trypsin-like and caspase-like activities, respectively. In addition to proteasome samples: L. donovani and THP1-enriched proteasomes, commercially available human purified 26S proteasome (Boston Biochem) was also assessed.
# [8] = with S9-mix, dose level 5 per plate
# [9] = with S9-mix, dose level 5 per plate, positive control
# [10] = without S9-mix, dose level 50 per plate
# [11] = without S9-mix, dose level 2 per plate
compound,measurement,setting,value
"Nc1ccc2cc3ccccc3cc2c1 [Compound 2-AAN, 2-Aminoanthracene, reference compound]",Mean revertants per plate,TA100; [8],4441.0
same,Ratio treated / solvent,TA100; [8],33.6
same,Mean revertants per plate,TA1535; [8],490.5
same,Ratio treated / solvent,TA1535; [8],31.6
same,Mean revertants per plate,TA1537; [9],153.0
same,Ratio treated / solvent,TA1537; [9],6.7
same,Mean revertants per plate,WP2 uvrA (pKM101),1650.5
same,Ratio treated / solvent,WP2 uvrA (pKM101),11.1
"O=[N+]([O-])c1ccc2c(c1)Cc1ccccc1-2 [Compound 2NF, 2-Nitrofluorene, reference compound]",Mean revertants per plate,TA98,417.5
same,Ratio treated / solvent,TA98,20.5
CCOc1cnc2nc(-c3cccc(NC(=O)c4ccco4)c3)cn2c1 [Compound 3],EC50,[1],4.2 µM
same,EC50,THP-1 cells,> 50 µM
same,CLint,[2],1.8 mL/min/g
same,CLint (intrinsic clearance when incubated with mouse liver microsomes),[2],1.8 mL/min per gram
same,solubility,[3],7 µg/mL
CCOc1cnc2nc(-c3cccc(NC(=O)N4CCCC4)c3)cn2c1 [Compound 4],EC50,[1],3.3 µM
same,EC50,THP-1 cells,> 50 µM
same,CLint,[2],0.59 mL/min/g
same,CLint (intrinsic clearance when incubated with mouse liver microsomes),[2],0.59 mL/min per gram
same,solubility,[3],7 µg/mL
O=C(Nc1cccc(-c2cn3cc(N4CCOCC4)cnc3n2)c1)N1CCCC1 [Compound 5],EC50,[1],8.2 µM
same,EC50,THP-1 cells,> 50 µM
same,CLint,[2],0.76 mL/min/g
same,CLint (intrinsic clearance when incubated with mouse liver microsomes),[2],0.76 mL/min per gram
same,solubility,[3],43 µg/mL
O=C(Nc1ccc(F)c(-c2cn3cc(-c4ccccc4)cnc3n2)c1)N1CCCC1 [Compound 6],EC50,[1],0.15 µM
same,EC50,THP-1 cells,> 50 µM
same,CLint,[2],2.6 mL/min/g
same,AMES,[4],not mutagenic; also recorded: negative
same,solubility,[3],8 µg/mL
same,FaSSIF solubility,[5],poor solubility
same,solubility,[5],4 µg/mL
O=C(Nc1ccc(F)c(-c2cn3cc(N4CCOCC4)cnc3n2)c1)N1CCCC1 [Compound 6a],EC50,[1],0.6 µM
same,improvement of intramacrophage potency,[1]; relative to 5,> 10 fold
same,EC50,THP-1 cells,> 50 µM
same,CLint,[2],< 0.5 mL/min/g
same,AMES,[4],mutagenic in strain TA1537 when tested in the absence of S9-mix; also recorded: positive
same,solubility,[3],39 µg/mL
same,FaSSIF solubility,[5],poor solubility
same,solubility,[5],6 µg/mL
"Nc1c2ccccc2nc2ccccc12 [Compound 9-AAC, 9-Amino Acridine, reference compound]",Mean revertants per plate,TA1537; [10],249.5
same,Ratio treated / solvent,TA1537; [10],17.4
"Cc1c2ccccc2c(C)c2c1ccc1ccccc12 [DMBA, 7,12-dimethylbenz[a]anthracene, reference compound]",Positive / Negative,mouse lymphoma cells; 3 hour +S9 treatment,Positive
same,MF (Mutation Frequency),mouse lymphoma cells; 3 hour +S9 treatment,1783.48 ×10-6
same,RTG (Relative Total Growth),mouse lymphoma cells; 3 hour +S9 treatment,28%
"Cc1nc(C)c(C(=O)Nc2ccc(F)c(-c3nc4ncc(-c5ccccn5)cn4n3)c2)o1 [GNF6702, reference compound]",EC50,[6]; RES I (compound 7-resistant clone),0.527 ± 0.012 µM
same,EC50,[6]; RES III (compound 7-resistant clone),0.768 ± 0.038 µM
same,EC50,[6]; WT promastigotes,0.0018 ± 2e-06 µM
"COS(C)(=O)=O [MMS, methylmethansulfonate, reference compound]",Positive / Negative,mouse lymphoma cells; 24 hour -S9 treatment,Positive
same,MF (Mutation Frequency),mouse lymphoma cells; 24 hour -S9 treatment,938.58 ×10-6
same,RTG (Relative Total Growth),mouse lymphoma cells; 24 hour -S9 treatment,73%
"[N-]=[N+]=[N-].[Na+] [NaN3, Sodium Azide, reference compound]",Mean revertants per plate,TA100; [11],1050.0
same,Ratio treated / solvent,TA100; [11],10.1
same,Mean revertants per plate,TA1535; [11],1128.5
same,Ratio treated / solvent,TA1535; [11],44.5
"CC(C)C[C@H](NC(=O)[C@H](CCc1ccccc1)NC(=O)CN1CCOCC1)C(=O)N[C@@H](Cc1ccccc1)C(=O)N[C@@H](CC(C)C)C(=O)[C@@]1(C)CO1 [carfilzomib, reference compound]","inhibition of chymotrypsin-like activity, RES II vs WT lysates",[7],equal potency
